Laboratory results from article PMC10182977 (Nature Communications, 2023).

T1: xlCHPT1 (Xenopus laevis, UniProt Q4KLV1)
T1 construct: gene chpt1; full-length, codon-optimized; C-terminal His6-tag cleaved with TEV protease; Hi Five (Trichoplusia ni) baculovirus; detergent-purified homodimer; residues 20-383 modelled
T1 sequence (Q4KLV1 1-402): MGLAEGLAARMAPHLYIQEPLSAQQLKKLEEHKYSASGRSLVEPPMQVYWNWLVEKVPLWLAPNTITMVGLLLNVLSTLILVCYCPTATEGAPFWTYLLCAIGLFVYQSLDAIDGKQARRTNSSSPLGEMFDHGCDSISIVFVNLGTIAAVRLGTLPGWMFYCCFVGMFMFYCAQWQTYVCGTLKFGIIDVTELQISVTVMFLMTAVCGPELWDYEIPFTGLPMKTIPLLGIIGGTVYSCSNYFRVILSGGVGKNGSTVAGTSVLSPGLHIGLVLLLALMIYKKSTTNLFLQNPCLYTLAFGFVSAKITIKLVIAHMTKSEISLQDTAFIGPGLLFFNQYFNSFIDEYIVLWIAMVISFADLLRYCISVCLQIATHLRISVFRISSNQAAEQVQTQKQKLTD

B1: Xenopus laevis cholinephosphotransferase-1 (enzyme, UniProt Q4KLV1 1-402, looked up)
chain: T1 sequence (Q4KLV1 1-402)
notes: cholinephosphotransferase-1 (CHPT1) of Xenopus laevis, full length, codon-optimized gene; residues 20-383 are resolved in the cryo-EM models, the first 19 and the last 18 residues are not resolved; The His6 tag was cleaved with TEV protease; residues of the cleavage site may be left at the C-terminus; also called xlCHPT1; CHPT1; source: Hi Five (Trichoplusia ni) cells, baculovirus, purified (LMNG …)

Assays:
xlCHPT1 = target: T1, xlCHPT1; assay: cryo-EM structure, ~[…] Å; format: binding; details: Mg2+ complex; 10 mM CDP and 0.5 mM DAG added; CDP-choline active site
[1] = target: the molecule itself; assay: cryo-EM structure; single-particle cryo-EM of purified xlCHPT1 in 20 mM HEPES, 150 mM NaCl, 2 mM BME, 4 mM MgCl2, 0.02% GDN; with 10 mM CDP-choline, or with 10 mM CDP and 0.5 mM DAG; refined with C2 symmetry

Row | Molecule | cryo-EM structure, ~3.2 Å (xlCHPT1) | stoichiometry N [1]
1 | Nc1ccn([C@@H]2O[C@H](COP(=O)(O)OP(=O)(O)O)[C@@H](O)[C@H]2O)c(=O)n1 [CDP] | xlCHPT1 in complex with CDP have been deposited in the PDB under the accession code 8ERO | 
2 | B1 |  | 2
